Measured values from PMC12314892, “Macrocyclic Phage Display for Identification of Selective Protease Substrates” (Journal of the American Chemical Society, 2025).
*1 amine or outer side, *2 acyl side, *3 side chain or, on linkers, in order; H or OH if unused. Where a SMILES comes first, the peptide text is derived from it. Bridges are numbered along the chain shown (N, C = ends). The star is where a group is joined. X1 = NC(=O)Cc1cc(=O)oc2cc(NC(=O)[C@@H]3CCCN3C(=O)Cn3nc(C[*:1])cc3C[*:2])ccc12; AMC = Cc1cc(=O)oc2cc(N*)ccc12

Columns and labels:
Recombinant Human FAPα = molecular target: T1, Recombinant Human FAPα (Homo sapiens, UniProt Q12884); test: Fluorogenic substrate cleavage assay; type: biochemical
T1 construct: purchased R&D Systems 3715-SE-010
T1 sequence (Q12884 1-760): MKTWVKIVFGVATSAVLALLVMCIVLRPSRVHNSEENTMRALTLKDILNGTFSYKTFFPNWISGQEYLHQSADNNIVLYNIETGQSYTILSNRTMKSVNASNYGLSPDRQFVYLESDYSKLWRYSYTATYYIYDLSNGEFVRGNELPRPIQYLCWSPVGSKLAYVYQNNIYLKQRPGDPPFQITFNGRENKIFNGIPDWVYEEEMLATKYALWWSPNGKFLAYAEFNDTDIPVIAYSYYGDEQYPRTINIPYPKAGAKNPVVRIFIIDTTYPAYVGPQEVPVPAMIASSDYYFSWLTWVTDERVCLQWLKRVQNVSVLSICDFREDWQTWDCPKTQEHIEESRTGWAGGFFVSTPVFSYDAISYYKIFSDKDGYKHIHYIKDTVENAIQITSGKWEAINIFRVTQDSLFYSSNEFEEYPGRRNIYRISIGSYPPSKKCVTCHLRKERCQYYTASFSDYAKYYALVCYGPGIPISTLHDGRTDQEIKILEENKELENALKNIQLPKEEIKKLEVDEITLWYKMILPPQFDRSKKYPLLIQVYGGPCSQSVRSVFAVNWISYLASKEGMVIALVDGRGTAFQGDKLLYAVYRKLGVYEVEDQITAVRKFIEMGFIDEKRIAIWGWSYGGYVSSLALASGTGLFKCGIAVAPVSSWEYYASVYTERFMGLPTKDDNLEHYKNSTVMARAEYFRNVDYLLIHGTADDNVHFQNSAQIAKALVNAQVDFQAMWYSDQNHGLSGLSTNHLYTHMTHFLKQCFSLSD
Protocol: (§1) Fluorogenic Substrate Cleavage Assay
(§2) The following proteases were used for the activity assay: Recombinant Human FAPα Protein, CF (R&D Systems, Catalog No.: 3715-SE-010), Recombinant Human Prolyl Oligopeptidase/PREP Protein, CF (R&D Systems, Catalog No.: 4308-SE-010). Recombinant Human DPP9 Protein, CF (R&D Systems, Catalog No.: 5419-SE-010). Recombinant Human DPP4 Protein (Sino Biological, Catalog No.: 10688-HNCH-10). The buffers used for the activity assay were: FAPα - 50 mM Tris, 1 M NaCl, 1 mg/mL BSA, pH 7.5, PREP- 25 mM Tris, 250 mM NaCl, 2.5 mM DTT, pH 7.5 (DTT was freshly added immediately before use), DPP9- 25 mM Tris, pH 7.5, DPP4- 25 mM Tris, pH
(§3) 7.5. The following commercial substrates were used: zGP-AMC (Bachem,Catalog No.: […]
(§4) conducted in Greiner Bio-One black microplates of 384 wells and polystyrene F-bottom (Catalog No.: 784076). All compounds were dissolved in DMSO at a concentration of 10 mM and then diluted into the respective buffer to the desired final concentration. The protease was added to the specified concentration before the fluorescence measurements. For fluorescence measurements, 2 μL of substrate was further diluted into 6 μL of buffer, followed by addition of 2 μL of enzyme in buffer. For no enzyme controls 2 μL of substrate was diluted into 8 μL of buffer.
(§5) The fluorescence was measured using a Cytation 3 plate reader (BioTek). All experiments have at least three technical replicates. All assays were conducted at 37°C for a minimum of 90 min, unless otherwise noted. Fluorescence measurements were performed at ex/em, 355/460 nm for ACC substrates. The substrates velocity was quantified by calculating the slope of the linear phase of the reaction as relative fluorescence units (RFU) per min. […]

Recombinant Human DPP9 = molecular target: T2, Recombinant Human DPP9 (Homo sapiens, UniProt Q86TI2); test: Fluorogenic substrate cleavage assay; type: biochemical; settings: Supplementary figure 11; 200 μM, 1 hour at 37°C; 2 nM DPP4 vs 6 nM DPP9; RFU/min
T2 construct: purchased R&D Systems 5419-SE-010
Protocol: as §1, §2, §3, §4, §5

T2 sequence (Q86TI2 whole entry): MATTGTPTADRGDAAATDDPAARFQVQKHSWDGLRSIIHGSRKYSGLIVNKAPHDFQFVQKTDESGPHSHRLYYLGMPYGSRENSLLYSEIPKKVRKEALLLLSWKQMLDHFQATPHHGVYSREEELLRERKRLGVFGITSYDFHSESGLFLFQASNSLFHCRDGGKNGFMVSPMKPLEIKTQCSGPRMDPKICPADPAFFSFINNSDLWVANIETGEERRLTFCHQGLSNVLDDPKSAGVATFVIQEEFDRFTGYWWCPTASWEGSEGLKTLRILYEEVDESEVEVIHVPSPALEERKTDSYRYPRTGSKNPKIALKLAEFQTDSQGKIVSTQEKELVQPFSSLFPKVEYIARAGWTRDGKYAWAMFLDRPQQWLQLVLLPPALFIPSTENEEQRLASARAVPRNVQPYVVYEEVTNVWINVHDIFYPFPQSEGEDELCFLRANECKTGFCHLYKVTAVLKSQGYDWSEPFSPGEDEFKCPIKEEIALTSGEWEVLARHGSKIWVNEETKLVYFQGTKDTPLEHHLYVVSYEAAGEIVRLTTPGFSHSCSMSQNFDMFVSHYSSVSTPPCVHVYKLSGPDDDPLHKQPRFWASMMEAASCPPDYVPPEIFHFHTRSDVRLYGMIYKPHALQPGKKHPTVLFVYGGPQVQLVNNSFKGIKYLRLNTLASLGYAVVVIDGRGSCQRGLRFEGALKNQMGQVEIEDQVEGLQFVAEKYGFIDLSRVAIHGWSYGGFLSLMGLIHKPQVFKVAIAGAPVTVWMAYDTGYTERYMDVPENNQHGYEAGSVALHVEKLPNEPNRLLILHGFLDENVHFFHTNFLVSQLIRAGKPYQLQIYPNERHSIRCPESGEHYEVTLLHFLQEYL

| selectivity for DPP4 (vs DPP9) (Recombinant Human DPP9) [fold] | selectivity for DPP4 (vs FAPα) (Recombinant Human FAPα; Supplementary figure 11, 200 μM, 1 hour at 37°C, 2 nM DPP4 vs 10 nM FAPα, RFU/min) [fold] | Structure (SMILES) | FAPα activity (substrate cleavage, RFU/min), in words (Recombinant Human FAPα; substrate 200 μM, 10 nM FAPα, 37 °C, triplicates) |
| --- | --- | --- | --- |
|  |  | CC(C)[C@@H]1NC(=O)[C@@H](N)CSCc2cc(n(CC(=O)N3CCC[C@H]3C(=O)Nc3ccc4c(CC(N)=O)cc(=O)oc4c3)n2)CSC[C@@H](C(=O)NCC(N)=O)NC(=O)[C@H](CC(=O)O)NC(=O)[C@H](C)NC(=O)[C@H](CC(N)=O)NC(=O)[C@H](CCC(N)=O)NC(=O)[C@H](Cc2ccccc2)NC(=O)[C@H](CO)NC1=O [FAP-33.2A6] (H-CVSFQNADCG-NH2; linker 1-9 via X1; N-terminus assumed) | better substrate than the parent FAP-33.2 |
| 11 | 16 | Cc1cc(=O)oc2cc(NC(=O)[C@@H]3CCCN3C(=O)CN)ccc12 [GP-AMC] (H-Gly-Pro-{AMC}) |  |
